Experimental data taken from PMC6419574 (Bioorganic & Medicinal Chemistry Letters, 2019).

Assays:
fascin [1] = target: T1, fascin (Homo sapiens, UniProt Q16658); type: biochemical
fascin [2] = target: T1, fascin; conditions: for Ligand efficiency: from SPR Kd
fascin [3] = target: T1, fascin; test: Isothermal titration calorimetry; type: binding; conditions: 150 µM compound in syringe, 15 µM fascin in cell, Fig. 3B
fascin [4] = target: T1, fascin; test: biochemical; conditions: SPR Kd

inhibition of fascin in the bundling assay (in words) (fascin [1])	Ligand efficiency (fascin [2])	SMILES	also measured
inhibit fascin	–	O=c1c2cnn(C3CCS(=O)(=O)C3)c2ncn1Cc1ccc(Cl)c(Cl)c1 (stereo not drawn) [Compound 2, 5-(3,4-dichlorobenzyl)-1-(1,1-dioxidotetrahydrothiophen-3-yl)-1,5-dihydro-4H-pyrazolo[3,4-d]pyrimidin-4-one, reference compound]	improvement of fascin affinity over truncated compound 25 (fascin [2]): 23 fold
inhibit fascin	–	Cn1cc(NC(=O)c2cn(Cc3ccccc3)c(=O)c3ccccc23)cn1 [Compound 3, 2-benzyl-N-(1-methylpyrazol-4-yl)-1-oxo-isoquinoline-4-carboxamide]	–
–	–	Cn1cc(NC(=O)c2cn(Cc3ccc(Cl)cc3)c(=O)c3ccccc23)cn1 [Compound 5, 2-(4-chlorobenzyl)-N-(1-methyl-1H-pyrazol-4-yl)-1-oxo-1,2-dihydroisoquinoline-4-carboxamide]	increase in binding affinity compared to 3 (fascin [2]; SPR Kd ratio vs compound 3): ≈ 14 fold
–	0.29	O=C(Nc1ccncc1)c1cn(Cc2ccc(Cl)c(Cl)c2)c(=O)c2cnn(C3CCNCC3)c12 [Compound 28, 5-(3,4-dichlorobenzyl)-4-oxo-1-(piperidin-4-yl)-N-(pyridin-4-yl)-4,5-dihydro-1H-pyrazolo[4,3-c]pyridine-7-carboxamide]	ITC stoichiometry N (fascin [3]): 1.05 ± 0.01; Kd (fascin [4]): 85 ± 0.02 nM

SMILES	inhibition of fascin in the bundling assay (in words) (fascin [1])	Ligand efficiency (fascin [2])	also measured
CC(=O)N(C)c1ccc(Cl)cc1Cl [Compound 1, N-(2,4-dichlorophenyl)-N-methylacetamide]	Unlike compound 1, both 2 and 3 inhibit fascin	0.43	–
